Literature values as cited in patent publication US20260183398A1, “RADIOLUMINESCENT NANOPARTICLES FOR RADIATION-TRIGGERED CONTROLLED RELEASE DRUGS” (Purdue Research Foundation, priority 2017, published 2026).

Legend:
[1] = PTX intratumorally delivered to mouse xenografts in the polymer encapsulated form
[2] = systemic chemotherapy, about 200 mg/m2
[3] = reported

tumor elimination rate constant ket [1]: 0,005 h^−1 | in vitro IC90 [3]: ≈ 0.09 μg PTX per mg tumor
SMILES: CC(=O)O[C@H]1C(=O)[C@@]2(C)[C@H]([C@H](OC(=O)c3ccccc3)[C@]3(O)C[C@H](OC(=O)[C@H](O)[C@@H](NC(=O)c4ccccc4)c4ccccc4)C(C)=C1C3(C)C)[C@]1(OC(C)=O)CO[C@@H]1C[C@@H]2O [PTX, paclitaxel]
patients with dermatological side effects (skin, hair, nail) [2]: 86.8% | in vitro IC90 (PTX concentration giving rise to 90% cell kill in vitro) [3]: about 90 μg/mL
